Data reported in patent publication US9156830B2, “Heterocyclic compounds” (SHIONOGI & CO., LTD., priority 2011, dated 2015).

How the values were obtained:
Human TRPV1 [1] = target: T1, Human TRPV1 (Homo sapiens (Human), UniProt Q8NER1); experiment: Capsaicin-Based Assay (Protocol 2), TRPV1/CHO cells; type: cell-based; conditions: capsaicin 100 nM final
Protocol: The TRPV1/CHO cell line was generated as described below. […] Subsequently, the cells were loaded by incubation in 0.1 mL of wash buffer containing Fluo-4 at 3 μM final concentration. After 1 hour, the cells were washed twice with 0.2 mL wash buffer and resuspended in 0.1 mL wash buffer. The plates were then transferred to a Fluorescence Imaging Plate Reader (Molecular Devices). Fluorescence intensity was monitored for 15 seconds to establish a baseline. […] The final concentration of the compound was adjusted to range from 100 μM to 1.5625 μM. […] Data were collected over the entire time course and analyzed using Excel and the curve-fitting formula GraphPad Prism.

Human TRPV1 [2] = target: T1, Human TRPV1; experiment: pH-Based Assay (Protocol 2), Ca2+ response in TRPV1/CHO cells; type: cell-based; conditions: pH 5.0-5.1 (H2SO4)
Protocol: The TRPV1/CHO cell line was generated as described below. The following assay was conducted to determine the concentration of sulfuric acid that would give rise to a pH that induces a […] response optimal to test compounds for their effect on TRPV1. […] For one half of a 96-well plate one agonist solution was used, for the other half the other agonist solution. The agonist solutions were obtained by diluting sulfuric acid (H2SO4, 1 M) with measuring buffer. The concentrations for the two agonist solutions were determined as described above in Section 2 of Protocol 2. The sulfuric acid concentrations between the two agonist solutions differed by 0.5 mM. […] The thereby-obtained solutions were further diluted in measuring buffer (1:100) as 10× stock serial dilutions with a DMSO concentration of 1%. 10 μL of a 10× stock was added into each well at step 3.3.(4) of Protocol 2. Thus, the final concentrations of antagonists ranged from 1000-0.977 nM containing 0.1% DMSO (FIG. 3B). […] (3) The cells were washed twice with 150 μL of measuring buffer (mentioned in 2.2.(3) of Protocol 2, no probenecid). The wells were subsequently refilled with 70 μL of measuring buffer. (4) Either 10 μL of measuring buffer or 10 μL of 10× stock serial dilution of test compound (described in 3.2. above) were applied to each well. Usually, only one test compound was tested per 96-well plate. The number of replicates per 96-well plate for a particular antagonist at a particular concentration was 7×2 since two different sulfuric acid concentrations were used per 96-well plate (N=7×2)(FIG. 3). Step (5) was the same as 2.2.(4) above. (6) Fura-2 fluorescent intensity was monitored as described in 2.2.(5) above. […] Steps (7) and (8) were as described in 2.2.(6) and 2.2.(7) above, respectively. […] FIG. 3) were measured one by one using a portable pH meter.

[3] = Fluo-4, read-out: TRPV1 IC50 Potency Capsaicin-Based Assay IC50
[4] = Fura-2, read-out: TRPV1 IC50 Potency pH-Based Assay IC50
[5] = Fluo-4, read-out: IC50 value by the Capsaicin-Based Assay
[6] = Fura-2, read-out: IC50 value by the pH-Based Assay

T1 sequence (Q8NER1 whole entry): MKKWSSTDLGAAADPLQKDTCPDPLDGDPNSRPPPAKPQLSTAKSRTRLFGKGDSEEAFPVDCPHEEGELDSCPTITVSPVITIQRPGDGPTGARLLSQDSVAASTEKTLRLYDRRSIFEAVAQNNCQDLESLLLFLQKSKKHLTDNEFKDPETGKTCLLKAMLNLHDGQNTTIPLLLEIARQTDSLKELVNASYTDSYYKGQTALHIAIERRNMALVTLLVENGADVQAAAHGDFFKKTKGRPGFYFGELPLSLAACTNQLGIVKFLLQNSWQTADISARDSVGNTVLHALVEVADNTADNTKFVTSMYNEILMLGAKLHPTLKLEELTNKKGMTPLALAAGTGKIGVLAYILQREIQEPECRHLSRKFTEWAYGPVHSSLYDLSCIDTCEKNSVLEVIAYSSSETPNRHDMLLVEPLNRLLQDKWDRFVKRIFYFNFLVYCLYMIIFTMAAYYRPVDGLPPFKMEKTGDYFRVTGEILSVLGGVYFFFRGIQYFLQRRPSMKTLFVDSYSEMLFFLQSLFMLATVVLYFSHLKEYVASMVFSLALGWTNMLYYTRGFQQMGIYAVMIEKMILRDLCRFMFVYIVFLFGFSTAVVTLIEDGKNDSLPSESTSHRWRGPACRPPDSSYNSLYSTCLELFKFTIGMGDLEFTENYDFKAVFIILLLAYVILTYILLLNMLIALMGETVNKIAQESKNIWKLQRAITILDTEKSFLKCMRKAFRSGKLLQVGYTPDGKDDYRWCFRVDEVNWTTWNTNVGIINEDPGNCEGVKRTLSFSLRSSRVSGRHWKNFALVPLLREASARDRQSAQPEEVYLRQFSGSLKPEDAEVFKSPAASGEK

An IC50 (Human TRPV1 [1]; [3]) of 322 nM was found for `O=C(Nc1ccc(C(F)(F)F)c(Cl)c1)N1CC=C(c2ncc(N3C[C@@H](O)[C@@H](O)C3=O)cc2Cl)CC1` [Compound I-71, N-(3-chloro-4-(trifluoromethyl)phenyl)-4-(3-chloro-5-((3R,4R)-3,4-dihydroxy-2-oxopyrrolidin-1-yl)pyridin-2-yl)-5,6-dihydropyridine-1(2H)-carboxamide] in this work.
An IC50 (Human TRPV1 [2]; [4]) of 12.8 nM was found for `O=C(C#Cc1ccc(-c2nnc(CO)o2)cc1Cl)Nc1ccc(C(F)(F)F)c(Cl)c1` [Compound I-81, 3-(2-chloro-4-(5-(hydroxymethyl)-1,3,4-oxadiazol-2-yl)phenyl)-N-(3-chloro-4-(trifluoromethyl)phenyl)propiolamide] in this work.
In the case of `Cc1cc(NC(=O)N2CC=C(c3ccc(-c4nnc(CO)o4)cc3Cl)CC2)ccc1C(F)(F)F` [Compound I-76, 4-(2-chloro-4-(5-(hydroxymethyl)-1,3,4-oxadiazol-2-yl)phenyl)-N-(3-methyl-4-(trifluoromethyl)phenyl)-5,6-dihydropyridine-1(2H)-carboxamide], the IC50 (Human TRPV1 [1]; [5]) is reported as ≤ 100 nM and the IC50 (Human TRPV1 [2]; [4]) is reported as 2.1 nM.
For `O=C(Nc1ccc(C(F)(F)F)cn1)N1CCC(F)(c2ncc(-c3cc(CO)on3)cc2Cl)CC1` [Compound I-53, 4-(3-chloro-5-(5-(hydroxymethyl)isoxazol-3-yl)pyridin-2-yl)-4-fluoro-N-(5-(trifluoromethyl)pyridin-2-yl)piperidine-1-carboxamide], the IC50 (Human TRPV1 [1]; [5]) was ≤ 100 nM and the IC50 (Human TRPV1 [2]; [6]) was ≤ 100 nM.
An IC50 (Human TRPV1 [1]; [3]) of 223 nM was found for `Cc1cc(NC(=O)N2CC=C(c3ncc(Cc4ncco4)cc3Cl)CC2)ccc1C(F)(F)F` [Compound I-80, 4-(3-chloro-5-(oxazol-2-ylmethyl)pyridin-2-yl)-N-(3-methyl-4-(trifluoromethyl)phenyl)-5,6-dihydropyridine-1(2H)-carboxamide] in this work.
With `Cc1cc(NC(=O)N2CC=C(c3ncc(-c4nnc(CO)o4)cc3C)CC2)ccc1C(F)(F)F` [Compound I-44, 4-(5-(5-(hydroxymethyl)-1,3,4-oxadiazol-2-yl)-3-methylpyridin-2-yl)-N-(3-methyl-4-(trifluoromethyl)phenyl)-5,6-dihydropyridine-1(2H)-carboxamide] the IC50 (Human TRPV1 [1]; [5]) was ≤ 100 nM and the IC50 (Human TRPV1 [2]; [4]) was 1 nM.
With `O=C(Nc1ccc(C(F)(F)F)c(Cl)c1)C1=CCN(c2ncc(-c3nnc(CO)o3)cc2Cl)CC1` [Compound I-67, N-(3-chloro-4-(thloro-5-(5-(hydroxymethyl)-1,3,4-oxadiazol-2-yl)pyridin-2-yl)-1,2,3,6-terifluoromethyl)phenyl)-1-(3-ctrahydropyridine-4-carboxamide] the IC50 (Human TRPV1 [1]; [5]) was ≤ 100 nM and the IC50 (Human TRPV1 [2]; [6]) was ≤ 100 nM.
An IC50 (Human TRPV1 [1]; [3]) of 357 nM was found for `O=C(NCCNc1ncc(-c2nnc(CO)o2)cc1Cl)Nc1ccc(C(F)(F)F)c(Cl)c1` [Compound I-60, 1-(3-chloro-4-(trifluoromethyl)phenyl)-3-(2-(3-chloro-5-(5-(hydroxymethyl)-1,3,4-oxadiazol-2-yl)pyridin-2-ylamino)ethyl) urea] in this work.
An IC50 (Human TRPV1 [1]; [3]) of 38.8 nM was found for `O=C(Nc1ccc(C(F)(F)F)c(Cl)c1)N1CC=C(c2ncc(Cc3nnc(CO)o3)cc2Cl)CC1` [Compound I-77, N-(3-chloro-4-(trifluoromethyl)phenyl)-4-(3-chloro-5-((5-(hydroxymethyl)-1,3,4-oxadiazol-2-yl)methyl)pyridin-2-yl)-5,6-dihydropyridine-1(2H)-carboxamide] in this work.
An IC50 (Human TRPV1 [2]; [4]) of 60.8 nM was found for `O=C(Nc1ccc(C(F)(F)F)c(Cl)c1)N1CC=C(c2ncc(-c3nnc(CCO)o3)cc2Cl)CC1` [Compound I-50, N-(3-chloro-4-(trifluoromethyl)phenyl)-4-(3-chloro-5-(5-(2-hydroxyethyl)-1,3,4-oxadiazol-2-yl)pyridin-2-yl)-5,6-dihydropyridine-1(2H)-carboxamide] in this work.
An IC50 (Human TRPV1 [2]; [4]) of 0.5 nM was found for `Cc1nnc(-c2cnc(C3=CCN(C(=O)Nc4ccc(C(C)(C)C)cc4)CC3)c(Cl)c2)o1` [Compound I-7] in this work.
For `Cc1cc(-c2nnc(CO)o2)cnc1C1=CCN(C(=O)Nc2ccc(C(F)(F)F)c(Cl)c2)CC1` [Compound I-43, N-(3-chloro-4-(trifluoromethyl)phenyl)-4-(5-(5-(hydroxymethyl)-1,3,4-oxadiazol-2-yl)-3-methylpyridin-2-yl)-5,6-dihydropyridine-1(2H)-carboxamide], the IC50 (Human TRPV1 [1]; [5]) was ≤ 100 nM and the IC50 (Human TRPV1 [2]; [6]) was ≤ 100 nM.
For `O=C(Nc1ccc(C(F)(F)F)c(Cl)c1)N1CCC(F)(c2ncc(-c3cc(CO)on3)cc2Cl)CC1` [Compound I-52, N-(3-chloro-4-(trifluoromethyl)phenyl)-4-(3-chloro-5-(5-(hydroxymethyl)isoxazol-3-yl)pyridin-2-yl)-4-fluoropiperidine-1-carboxamide], the IC50 (Human TRPV1 [1]; [5]) was ≤ 100 nM and the IC50 (Human TRPV1 [2]; [6]) was ≤ 100 nM.
For `O=C(Nc1ccc(C(F)(F)F)c(Cl)c1)N1CC=C(c2ccc(-c3nnc(CO)o3)cc2Cl)CC1` [Compound I-75, 4-(2-chloro-4-(5-(hydroxymethyl)-1,3,4-oxadiazol-2-yl)phenyl)-N-(3-chloro-4-(trifluoromethyl)phenyl)-5,6-dihydropyridine-1(2H)-carboxamide], the IC50 (Human TRPV1 [1]; [5]) was ≤ 100 nM and the IC50 (Human TRPV1 [2]; [6]) was ≤ 100 nM.
An IC50 (Human TRPV1 [1]; [3]) of 16.6 nM was found for `O=C(Nc1ccc(C(F)(F)F)cn1)N1CCC(F)(c2ncc(-c3nc(CO)no3)cc2Cl)CC1` [Compound I-57, 4-(3-chloro-5-(3-(hydroxymethyl)-1,2,4-oxadiazol-5-yl)pyridin-2-yl)-4-fluoro-N-(5-(trifluoromethyl)pyridin-2-yl)piperidine-1-carboxamide] in this work.
In the case of `Cc1cc(NC(=O)N2CCC(F)(c3ncc(-c4cc(CO)on4)cc3Cl)CC2)ccc1C(F)(F)F` [Compound I-54, 4-(3-chloro-5-(5-(hydroxymethyl)isoxazol-3-yl)pyridin-2-yl)-4-fluoro-N-(3-methyl-4-(trifluoromethyl)phenyl)piperidine-1-carboxamide], the IC50 (Human TRPV1 [1]; [5]) is reported as ≤ 100 nM and the IC50 (Human TRPV1 [2]; [6]) is reported as ≤ 100 nM.
An IC50 (Human TRPV1 [1]; [3]) of 342 nM was found for `Cc1cc(-c2ccc(CO)o2)cnc1C1(F)CCN(C(=O)Nc2ccc(C(F)(F)F)c(Cl)c2)CC1` [Compound I-39, N-(3-chloro-4-(trifluoromethyl)phenyl)-4-fluoro-4-(5-(5-(hydroxymethyl)furan-2-yl)-3-methylpyridin-2-yl)piperidine-1-carboxamide] in this work.
